Test results: PMC6385020 (Molecules, 2019)

Experiments:
[1] = test system: c-myc (myc22) (DNA, G4) TGAGGGTGGGTAGGGTGGGTAA; assay: G4-FID, TO-PRO-3 displacement; details: 100 mM KCl; 10 mM lithium cacodylate pH 7.3, 1% DMSO; TO-PRO-3 displaced; 1 µM compound, 0.25 µM DNA
[2] = test system: CEB25-WT (DNA, G4) AAGGGTGGGTGTAAGTGTGGGTGGGT; assay: G4-FID, TO-PRO-3 displacement; details: 100 mM KCl; 10 mM lithium cacodylate pH 7.3, 1% DMSO; TO-PRO-3 displaced; 1 µM compound, 0.25 µM DNA
[3] = test system: F-CEB25-WT-T (DNA, G4) AGGGTGGGTGTAAGTGTGGGTGGGT; assay: FRET-melting; details: 1 mM KCl, 99 mM LiCl; 10 mM lithium cacodylate pH 7.3; 1 µM compound, 0.2 µM DNA
[4] = test system: F-myc-T (DNA, G4) TGAGGGTGGGTAGGGTGGGTAA; assay: FRET-melting; details: 1 mM KCl, 99 mM LiCl; 10 mM lithium cacodylate pH 7.3; 1 µM compound, 0.2 µM DNA
[5] = test system: F-21CTA-T (DNA, G4) AGGGCTAGGGCTAGGGCTAGGG; assay: FRET-melting; details: 1 mM KCl, 99 mM LiCl; 10 mM lithium cacodylate pH 7.3; 1 µM compound, 0.2 µM DNA
[6] = test system: F-21-T (DNA, G4) GGGTTAGGGTTAGGGTTAGGG; assay: FRET-melting; details: 10 mM KCl, 90 mM LiCl; 10 mM lithium cacodylate pH 7.3; 1 µM compound, 0.2 µM DNA

CN(C)c1ccc(/C=C/c2cc(-c3ccccn3)nc(-c3ccccn3)n2)cc1.[Cl-].[Cl][Pt+] [Pt-vpym, Chloro-(E)-4-(2-(2,6-di(pyridin-2-yl)pyrimidin-4-yl)vinyl)-N,N-dimethylaniline-platinum(II) Chloride]
% TO-PRO-3 displacement [1]: ~ 30% | % TO-PRO-3 displacement [2]: ~ 30%

Cc1ccc(-c2cc(-c3ccccn3)nc(-c3ccccn3)c2)cc1.[Cl-].[Cl][Pt+] [Pt-ttpy]
ΔTm [3]: > 10 °C | ΔTm [4]: > 10 °C | ΔTm [5]: > 10 °C | ΔTm [6]: > 10 °C
